In the oligonucleotide strings, read from the 5' end, every base follows the letter of its sugar. An asterisk marks phosphorothioate; unmarked linkages are phosphodiester. Other units and linkages are bracketed, terminal groups are in braces. A string of capitals states the bases alone. e = 2'-O-(2-methoxyethyl) (MOE); [5mC] = 5-methylcytosine; d = 2'-deoxy (DNA)
What was measured:
human Factor 7 mRNA [1] = assay: Dose-dependent antisense inhibition of human Factor 7 in HepB3 cells, transfection with lipofectin; format: cell-based; details: HepB3, lipofectin, ~16 h
Procedure: Cells were plated at a density of 4,000 cells per well and treated with lipofectin reagent with 3.125 nM, 6.25 nM, 12.5 nM, 25 nM, 50 nM, and 100 nM concentrations of antisense oligonucleotide, as indicated in Table 3. After a treatment period of approximately 16 hours, RNA was isolated from the cells and Factor 7 mRNA levels were measured by real-time RT-PCR, as described herein. Human Factor 7 primer probe set RTS 2927 (forward sequence: […], incorporated herein as SEQ ID NO: 164; reverse sequence: […], incorporated herein as SEQ ID NO: 165; probe sequence: TGGGTGGTCTCCGCGGCCX, incorporated herein as SEQ ID NO: 166) was used to measure mRNA levels. Factor 7 mRNA levels were adjusted according to total RNA content as measured by RIBOGREEN®. Results are presented as percent inhibition of Factor 7, relative to untreated control cells.
Cells were plated at a density of 4,000 cells per well and transfected using lipofectin reagent with 6.25 nM, 12.5 nM, 25.0 nM, 50.0 nM, and 100.0 nM concentrations of antisense oligonucleotide, as indicated in Table 7. After a treatment period of approximately 16 hours, RNA was isolated from the cells and Factor 7 mRNA levels were measured by real-time RT-PCR, as described herein. Human Factor 7 primer probe set RTS 2927 was used to measure mRNA levels. Factor 7 mRNA levels were adjusted according to total RNA content as measured by RIBOGREEN®. Results are presented as percent inhibition of Factor 7, relative to untreated control cells.
Cells were plated at a density of 4,000 cells per well and transfected using lipofectin reagent with 3.125 nM, 6.25 nM, 12.5 nM, 25 nM, 50 nM, and 100 nM concentrations of antisense oligonucleotide, as specified in Table 14. After a treatment period of approximately 16 hours, RNA was isolated from the cells and Factor 7 mRNA levels were measured by quantitative real-time PCR. Human Factor 7 primer probe set RTS 2927 was used to measure mRNA levels. Factor 7 mRNA levels were adjusted according to total RNA content, as measured by RIBOGREEN®. Results are presented as percent inhibition of Factor 7, relative to untreated control cells.

human Factor 7 mRNA [2] = assay: Antisense inhibition of human Factor 7 mRNA in HepB3 cells, lipofectin, 50 nM, real-time RT-PCR; format: cell-based; details: for % Inhibition (human Factor 7 mRNA): 50 nM, ~24 h
In short: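 HepB3 cells were transfected by lipofectin with 50 nM antisense oligonucleotide and harvested after about 24 h. Factor 7 mRNA was measured by real-time RT-PCR (primer probe set RTS 2927 in some runs), normalized to RIBOGREEN total RNA, and reported as percent inhibition versus untreated control.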

[3] = Example 1, HepB3 cells, lipofectin, relative to untreated control cells
[4] = HepB3 cells, lipofectin, 50 nM antisense oligonucleotide, approximately 24 hours, primer probe set RTS 2927, relative to untreated control
[5] = Example 6 microwalk, nucleobases 15098 to 15122 of SEQ ID NO: 1, HepB3, lipofectin
[6] = HepB3 cells, gapmers (5-10-5, 3-14-3, 2-13-5 MOE) targeted to nucleobases 4868 to 4899 of SEQ ID NO: 1

| Substance | percent inhibition of Factor 7 mRNA, 3.125 nM (human Factor 7 mRNA [1]; Example 2) [%] | percent inhibition of Factor 7 mRNA, 6.25 nM (human Factor 7 mRNA [1]; Example 2) [%] | percent inhibition of Factor 7 mRNA, 12.5 nM (human Factor 7 mRNA [1]; Example 2) [%] | percent inhibition of Factor 7 mRNA, 25.0 nM (human Factor 7 mRNA [1]; Example 2) [%] | percent inhibition of Factor 7 mRNA, 50.0 nM (human Factor 7 mRNA [1]; Example 2) [%] | percent inhibition of Factor 7 mRNA, 100.0 nM (human Factor 7 mRNA [1]; Example 2) [%] | % Inhibition (human Factor 7 mRNA) (human Factor 7 mRNA [2]; [3]) [%] | % Inhibition (human Factor 7 mRNA) (human Factor 7 mRNA [2]; [5]) [%] | % Inhibition of human Factor 7 mRNA levels (human Factor 7 mRNA [2]; [6]) [%] | also measured |
| --- | --- | --- | --- | --- | --- | --- | --- | --- | --- | --- |
| 407594 (antisense e[5mC]*e[5mC]*eT*eG*e[5mC]*dA*dG*d[5mC]*d[5mC]*dA*dG*dG*d[5mC]*dA*dG*e[5mC]*e[5mC]*e[5mC]*eT*eG) [compound 407594] | 10 | 34 | 63 | 77 | 84 | 80 | 87 |  |  |  |
| 407606 (antisense e[5mC]*eT*eG*eG*eT*d[5mC]*d[5mC]*dT*dT*dG*d[5mC]*dA*dG*dG*dA*eG*e[5mC]*e[5mC]*e[5mC]*e[5mC]) [compound 407606] | 20 | 0 | 49 | 55 | 83 | 84 | 89 |  |  | % Inhibition of human Factor 7 mRNA levels (human Factor 7 mRNA [2]; [4]): 57% |
| 407641 (antisense e[5mC]*e[5mC]*eT*eG*eA*dG*dG*d[5mC]*d[5mC]*dA*dG*d[5mC]*dA*dG*dA*eT*e[5mC]*eA*e[5mC]*eG) [compound 407641] | 53 | 53 | 71 | 84 | 88 | 89 | 94 |  |  | % Inhibition of human Factor 7 mRNA levels (human Factor 7 mRNA [2]; [4]): 73%; % Inhibition of human Factor 7 mRNA levels (human Factor 7 mRNA [2]; HepB3 cells, gapmers targeted to nucleobases 14707 to 14732 of SEQ ID NO: 1 (Table 11)): 68% |
| 407643 (antisense e[5mC]*eA*e[5mC]*eA*e[5mC]*dA*dT*dG*dG*dA*dG*dT*d[5mC]*dA*dG*e[5mC]*eA*eT*e[5mC]*eG) [compound 407643] | 16 | 59 | 68 | 76 | 92 | 95 | 84 | 69 |  | percent inhibition of Factor 7 mRNA, 6.25 nM (human Factor 7 mRNA [1]; Example 5): 36%; percent inhibition of Factor 7 mRNA, 12.5 nM (human Factor 7 mRNA [1]; Example 5): 49%; percent inhibition of Factor 7 mRNA, 25.0 nM (human Factor 7 mRNA [1]; Example 5): 70%; percent inhibition of Factor 7 mRNA, 50.0 nM (human Factor 7 mRNA [1]; Example 5): 83%; percent inhibition of Factor 7 mRNA, 100.0 nM (human Factor 7 mRNA [1]; Example 5): 93%; % Inhibition of human Factor 7 mRNA levels (human Factor 7 mRNA [2]; [4]): 80% |
| 407900 (antisense e[5mC]*e[5mC]*e[5mC]*e[5mC]*eA*d[5mC]*dA*dA*dT*dT*d[5mC]*dG*dG*d[5mC]*d[5mC]*eT*eT*eG*eG*eG) [compound 407900] | 52 | 58 | 80 | 87 | 94 | 91 | 91 |  |  | percent inhibition of Factor 7 mRNA, 6.25 nM (human Factor 7 mRNA [1]; Example 5): 18%; percent inhibition of Factor 7 mRNA, 12.5 nM (human Factor 7 mRNA [1]; Example 5): 36%; percent inhibition of Factor 7 mRNA, 25.0 nM (human Factor 7 mRNA [1]; Example 5): 61%; percent inhibition of Factor 7 mRNA, 50.0 nM (human Factor 7 mRNA [1]; Example 5): 82%; percent inhibition of Factor 7 mRNA, 100.0 nM (human Factor 7 mRNA [1]; Example 5): 91%; % Inhibition of human Factor 7 mRNA levels (human Factor 7 mRNA [2]; [4]): 78% |
| 407910 (antisense eA*eG*eT*e[5mC]*e[5mC]*dT*dT*dG*d[5mC]*dT*dG*d[5mC]*d[5mC]*dA*dT*e[5mC]*e[5mC]*eG*eA*eG) [compound 407910] | 31 | 44 | 69 | 68 | 82 | 89 | 86 |  |  | % Inhibition of human Factor 7 mRNA levels (human Factor 7 mRNA [2]; [4]): 72% |
| 407936 (antisense eG*eG*e[5mC]*eA*eT*dT*d[5mC]*dG*d[5mC]*d[5mC]*dA*d[5mC]*d[5mC]*dA*dT*eG*e[5mC]*eA*eT*eG) [compound 407936] | 45 | 77 | 79 | 86 | 91 | 90 | 91 |  |  |  |
| 422284 (antisense e[5mC]*eA*d[5mC]*dA*d[5mC]*dA*dT*dG*dG*dA*dG*dT*d[5mC]*dA*dG*e[5mC]*eA*eT*e[5mC]*eG) [compound 422284] |  |  |  |  |  |  |  | 43 |  |  |
| 422285 (antisense eG*e[5mC]*dA*d[5mC]*dA*d[5mC]*dA*dT*dG*dG*dA*dG*dT*d[5mC]*dA*eG*e[5mC]*eA*eT*e[5mC]) [compound 422285] |  |  |  |  |  |  |  | 39 |  |  |
| 422286 (antisense eA*eG*d[5mC]*dA*d[5mC]*dA*d[5mC]*dA*dT*dG*dG*dA*dG*dT*d[5mC]*eA*eG*e[5mC]*eA*eT) [compound 422286] |  |  |  |  |  |  |  | 53 |  |  |
| 422287 (antisense e[5mC]*eA*dG*d[5mC]*dA*d[5mC]*dA*d[5mC]*dA*dT*dG*dG*dA*dG*dT*e[5mC]*eA*eG*e[5mC]*eA) [compound 422287] |  |  |  |  |  |  |  | 41 |  |  |
| 422288 (antisense eA*e[5mC]*dA*dG*d[5mC]*dA*d[5mC]*dA*d[5mC]*dA*dT*dG*dG*dA*dG*eT*e[5mC]*eA*eG*e[5mC]) [compound 422288] |  |  |  |  |  |  |  | 44 |  |  |
| 422289 (antisense eG*eA*d[5mC]*dA*dG*d[5mC]*dA*d[5mC]*dA*d[5mC]*dA*dT*dG*dG*dA*eG*eT*e[5mC]*eA*eG) [compound 422289] |  |  |  |  |  |  |  | 34 |  |  |
| 422290 (antisense eT*e[5mC]*dT*dG*d[5mC]*dA*dG*dG*dA*dG*d[5mC]*dG*dG*d[5mC]*d[5mC]*eT*eA*eA*eA*eT) [compound 422290] |  |  |  |  |  |  |  |  | 50 |  |
| 422291 (antisense eT*eT*d[5mC]*dT*dG*d[5mC]*dA*dG*dG*dA*dG*d[5mC]*dG*dG*d[5mC]*e[5mC]*eT*eA*eA*eA) [compound 422291] |  |  |  |  |  |  |  |  | 53 |  |
| 422293 (antisense eA*eG*dT*dT*d[5mC]*dT*dG*d[5mC]*dA*dG*dG*dA*dG*d[5mC]*dG*eG*e[5mC]*e[5mC]*eT*eA) [compound 422293] |  |  |  |  |  |  |  |  | 69 |  |
| 422297 (antisense e[5mC]*e[5mC]*d[5mC]*dG*dA*dG*dT*dT*d[5mC]*dT*dG*d[5mC]*dA*dG*dG*eA*eG*e[5mC]*eG*eG) [compound 422297] |  |  |  |  |  |  |  |  | 63 |  |
| 422298 (antisense eG*e[5mC]*d[5mC]*d[5mC]*dG*dA*dG*dT*dT*d[5mC]*dT*dG*d[5mC]*dA*dG*eG*eA*eG*e[5mC]*eG) [compound 422298] |  |  |  |  |  |  |  |  | 62 |  |
| 422299 (antisense eA*eG*d[5mC]*d[5mC]*d[5mC]*dG*dA*dG*dT*dT*d[5mC]*dT*dG*d[5mC]*dA*eG*eG*eA*eG*e[5mC]) [compound 422299] |  |  |  |  |  |  |  |  | 64 |  |
| 422300 (antisense eG*eA*dG*d[5mC]*d[5mC]*d[5mC]*dG*dA*dG*dT*dT*d[5mC]*dT*dG*d[5mC]*eA*eG*eG*eA*eG) [compound 422300] |  |  |  |  |  |  |  |  | 65 |  |
| 422301 (antisense eG*eG*dA*dG*d[5mC]*d[5mC]*d[5mC]*dG*dA*dG*dT*dT*d[5mC]*dT*dG*e[5mC]*eA*eG*eG*eA) [compound 422301] |  |  |  |  |  |  |  |  | 67 |  |
| 422302 (antisense eA*eG*dG*dA*dG*d[5mC]*d[5mC]*d[5mC]*dG*dA*dG*dT*dT*d[5mC]*dT*eG*e[5mC]*eA*eG*eG) [compound 422302] |  |  |  |  |  |  |  |  | 67 |  |
